Assay results as given in patent US11191773B2, “Methods of treatment for bacterial infections” (President and Fellows of Harvard College, priority 2017, dated 2021).
Read-outs that look alike come from different tables or passages of the source. Bridge positions count the residues as written; N and C are the ends. Square brackets hold non-standard residues; d marks the D form. Peptide text beside a SMILES is read from it. * marks the point of attachment. Ileψ(thiazoline)Cys = CC[C@H](C)[C@H](N)C1=N[C@H](C(=O)*)CS1; dOrn = NCCC[C@@H](N)C(=O)O

Legend:
LptB = target: T1, LptB (Escherichia coli, UniProt P0A9V1); experiment: Fbn-LptB binding assay (19F NMR linewidth); parameters: species or system E. coli
T1 construct: LptB-His (full-length LptB with a C-terminal His8 tag); His8 (C); made in house; host or cells: E. coli KRX (Promega)
Description: FIG. 12 is a graph showing the ^19F NMR linewidth of fluorobiocin (fbn) plotted vs. log[LptB]. Data were analyzed with GraphPad Prism 7 software using a nonlinear fit, log(agonist) vs. response with an R^2=0.9909.
We soaked novobiocin into LptB-ADP crystals and obtained a 2.0-Å structure of a co-complex (FIG. 7A, FIG. 11). ADP is still present in the co-complex, and novobiocin binds adjacent to the groove in LptB that accommodates the coupling helices from LptFG (FIG. 7B, FIG. 11). Coupling helices are a conserved motif in ABC systems that connect the transmembrane domains (here, LptFG) to the nucleotide-binding domains (here, LptB). […] This residue is invariant in LptB, and non-conservative substitutions at this position are lethal because they disrupt proper formation of the LptB2FG complex. Novobiocin thus binds a critical position at the LptBLptFG interface. To estimate the affinity of novobiocin for LptB, we synthesized an otherwise identical analogue in which a phenolic hydroxyl was substituted with a 19F-label (fluorobiocin, FIG. 8A).
5 mL of the buffered Fbn ligand solution was prepared by mixing 200 μL of 25X TBS pH 8.0, 125 μL 200 mM ADP pH 7.0, 125 μL 200 mM MgCl2, 4.43 μL of 56.5 mM Fbn, 4.55 mL of D20. Final [Tris-Cl]=50 mM, [NaCl]=150 mM, [ADP]=5 mM, [MgCl2]=5 mM, [Fbn]=50 μM. […]

lptB1(R144H) = experiment: Disk diffusion assay; format: cell-based, E. coli; details: for Zone of inhibition, diameter of the zone of total growth inhibition: 6-mm disks, bacitracin 10IU, erythromycin 15 μg, novobiocin 30 μg, rifampin 5 μg, nalidixic acid 5 μg
Description: (§1) Zones of inhibition were measured in disk diffusion assays of wild type, IptB1, and suppressors IptB1(R144H) and IptB1(G33C) pictured in FIG. 6B. Assays were conducted with 6-mm disks. Numbers outside of parentheses report the diameter of the zone of total growth inhibition (in mm), while numbers inside parenthesis report the diameter of the zone of partial growth inhibition.
(§2) Disk diffusion assays were performed as described in Sherman et al., Proc. Natl. Acad. Sci. USA 2014, 111, 4982-4987. Premade Sensi-Disc (BD-Beckton, Dickinson and Company) were used for bacitracin 10IU, erythromycin 15 μg, novobiocin 30 μg, and rifampin 5 μg.

lptB1(G33C) = experiment: Disk diffusion assay; format: cell-based, E. coli
Description: as §1, §2

wild type = experiment: Disk diffusion assay; format: cell-based, E. coli; details: 6-mm disks, bacitracin 10IU, erythromycin 15 μg, novobiocin 30 μg, rifampin 5 μg, nalidixic acid 5 μg
Description: as §1, §2

lptB1 = experiment: Disk diffusion assay; format: cell-based, E. coli; details: for zone of inhibition at 15 µg/disc / zone of inhibition at 5 µg/disc: Escherichia coli; for Zone of inhibition, diameter of the zone of total growth inhibition: 6-mm disks, bacitracin 10IU, erythromycin 15 μg, novobiocin 30 μg, rifampin 5 μg, nalidixic acid 5 μg
Description: as §1, §2

IptFG(ch) mutant = experiment: Rescue of growth of coupling helix mutant (plating and disk assays); format: cell-based, E. coli; details: disks on LB plates, each disk 5 μg compound (FIG. 15)
Description: FIG. 8B is a series of pictures of bacterial overnight cultures grown in minimal medium. The cultures were serially diluted ten-fold and spotted onto LB agar plates with and without compounds.
FIG. 15 is a picture of bacterial lawns grown on plates in the presence of disks containing antibiotics. […] Strains were grown overnight in minimal media and then plated on LB plates. Each disk contained 5 μg compound.
The coupling helices in LptFG each contain a strictly-conserved glutamate, and changing both glutamates to alanine (IptFG(ch)) causes a lethal loss of function (FIG. 8B, LB panel). […] Because novobiocin also contacts R91 (FIG. 7C), we speculated that it might rescue growth of IptFG(ch) by masking the charge. […] We conclude that novobiocin suppresses Lpt defects in vivo by interacting with LptB at R91; therefore, novobiocin interacts with LptB in cells in a similar manner to that observed in the crystal structure.
as §2
Efficiency of plating assays were performed on indicated media using the method described in Butler et al., J. Bacteriol. 2013, 195, 4639-4649.

[1] = test system: E. coli strain ATCC 25922; experiment: Neutropenic mouse thigh infection efficacy; format: in vivo; details: for Average log10 CFU/g of thigh: neutropenic CD-1 mice, 26 hours post infection
Description: Female CD-1 mice from Charles River Laboratories were allowed to acclimate for 5 days prior to start of study. Animals were housed four per cage with free access to food and water. Mice received two doses of cyclophosphamide on days −4 and −1 with 150 mg/kg and 100 mg/kg delivered IP, respectively. All procedures were performed to NeoSome IACUC policies and guidelines as well as OLAW standards.
E. coli strain ATCC 25922 was prepared for infection from an overnight plate culture. A portion of the plate was resuspended in sterile saline and adjusted to an OD of 0.15 at 625 nm. The adjusted bacterial suspension was further diluted to target an infecting inoculum of 1.5×10^5 CFU/mouse, the actual inoculum size for E. coli was 1.45×10^5 CFU/mouse. Plate counts of the inoculum was performed to confirm inoculum concentration.
Mice were inoculated with 100 μL of the prepared bacterial suspension via intramuscular injection into the right rear thigh.
Beginning at two hours post infection, mice were dosed with test agents subcutaneously at 10 mL/kg. A second dose of test agents was delivered at 6 hours post infection. For co-administered therapy, test agents were delivered separately at two different injection sites. Four animals were dosed per group. One group of four mice were euthanized at initiation of therapy (T=2 h) and CFUs determined. All remaining mice were euthanized at 26 hours post infection. At termination, thighs were aseptically excised, weighed, and homogenized to a uniform consistency in 2 mL of sterile saline. The homogenate was serially diluted and plated on bacterial growth media. The CFUs were enumerated after overnight incubation. The average and standard deviations for each group were determined.
Neutropenic mice infected with E. coli were treated with novobiocin, polymyxin B, or a combination of the two for the evaluation of efficacy is a thigh infection model.

[2] = test system: Acinetobacter baumannii Novo^R; experiment: Minimal inhibitory concentrations, checkerboard microdilution; format: cell-based; details: grown at 37° C. for 24 h
Description: (§3) Checkerboard microdilution assays between polymyxin B and novobiocin were performed in wild-type strains (unless otherwise noted) grown at 37° C. for 24 h. Checkerboard data (FIG. 1A-1F) are representative of at least three biological replicates. The following strains were tested: A) Wild-type Escherichia coli, ATCC 25922; B) Wild-type Enterobacter cloacae; ATCC 13047) Wild-type Klebsiella pneumoniae, ATCC 700721; D) Wild-type Pseudomonas aeruginosa, ATCC 15692 (PAO1); E) Wild-type Acinetobacter baumannii, ATCC 19606; F) novobiocin-resistant Acinetobacter baumannii, ATCC 19606 gyrB(R150C).

Escherichia coli = experiment: as above; format: cell-based; details: grown at 37° C. for 24 h
Description: as §3

Pseudomonas aeruginosa = experiment: as above; format: cell-based; details: grown at 37° C. for 24 h
Description: as §3

Klebsiella pneumoniae = experiment: as above; format: cell-based; details: grown at 37° C. for 24 h
Description: as §3

[3] = Escherichia coli, read-out: Zone of inhibition, diameter of the zone of partial growth inhibition (in parentheses)
[4] = read-out: Zone of inhibition, diameter of the zone of partial growth inhibition (in parentheses)
[5] = read-out: Zone of inhibition, diameter of the zone of total growth inhibition
[6] = 6-mm disks, bacitracin 10IU, erythromycin 15 μg, novobiocin 30 μg, rifampin 5 μg, nalidixic acid 5 μg
[7] = Escherichia coli, read-out: Zone of inhibition, diameter of the zone of total growth inhibition
[8] = PMB 0.03 mg/kg (total 0.06) BID/SC
[9] = PMB 0.1 mg/kg (total 0.2) BID/SC
[10] = PMB 0.3 mg/kg (total 0.6) BID/SC

T1 sequence (P0A9V1 whole entry): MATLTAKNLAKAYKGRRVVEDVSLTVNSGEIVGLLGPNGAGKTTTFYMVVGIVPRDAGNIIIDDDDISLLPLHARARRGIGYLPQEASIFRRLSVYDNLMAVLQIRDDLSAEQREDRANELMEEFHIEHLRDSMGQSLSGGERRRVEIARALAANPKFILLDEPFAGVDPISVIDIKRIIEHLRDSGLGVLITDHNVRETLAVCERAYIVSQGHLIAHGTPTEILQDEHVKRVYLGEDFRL

CO[C@@H]1[C@@H](OC(N)=O)[C@@H](O)[C@H](Oc2ccc3c(O)c(NC(=O)c4ccc(F)c(CC=C(C)C)c4)c(=O)oc3c2C)OC1(C)C [fluorobiocin, (3R,4S,5R,6R)-6-((3-(4-fluoro-3-(3-methylbut-2-en-1-yl)benzamido)-4-hydroxy-8-methyl-2-oxo-2H-chromen-7-yl)oxy)-5-hydroxy-3-methoxy-2,2-dimethyltetrahydro-2H-pyran-4-yl carbamate]
Kd (LptB; 19F NMR linewidth vs. log[LptB], nonlinear fit, [Fbn]=50 μM, 5 mM ADP): 18 µM
affinity for LptB in words (LptB; Solution NMR binding experiments): low micromolar binder

CC[C@H]1OC(=O)[C@H](C)[C@@H](O[C@H]2C[C@@](C)(OC)[C@@H](O)[C@H](C)O2)[C@H](C)[C@@H](O[C@@H]2O[C@H](C)C[C@H](N(C)C)[C@H]2O)[C@](C)(O)C[C@@H](C)C(=O)[C@H](C)[C@@H](O)[C@]1(C)O [Erythromycin]
zone of inhibition at 15 µg/disc (lptB1(R144H); [3]): 16 mm
zone of inhibition at 15 µg/disc (lptB1(G33C); [3]): 11 mm
zone of inhibition at 15 µg/disc (wild type; [3]): 8 mm
zone of inhibition at 15 µg/disc (lptB1; [4]): 21 mm
zone of inhibition at 15 µg/disc (lptB1; [5]): 16 mm

CC[C@H](C)[C@H](N)C1=N[C@H](C(=O)N[C@@H](CC(C)C)C(=O)N[C@H](CCC(=O)O)C(=O)N[C@H](C(=O)N[C@H]2CCCCNC(=O)[C@H](CC(N)=O)NC(=O)[C@@H](CC(=O)O)NC(=O)[C@H](Cc3cnc[nH]3)NC(=O)[C@@H](Cc3ccccc3)NC(=O)[C@H]([C@@H](C)CC)NC(=O)[C@@H](CCCN)NC2=O)[C@@H](C)CC)CS1 [Bacitracin] ({Ileψ(thiazoline)Cys}-L[dE]IK[dOrn]I[dF]H[dD]N; lactam 4-C)
Zone of inhibition, diameter of the zone of total growth inhibition (lptB1(R144H)): 17 mm
Zone of inhibition, diameter of the zone of partial growth inhibition (in parentheses) (lptB1(G33C); [6]): (8) mm
Zone of inhibition, diameter of the zone of total growth inhibition (wild type): <6 mm
Zone of inhibition, diameter of the zone of total growth inhibition (lptB1): 17 mm

CCn1cc(C(=O)O)c(=O)c2ccc(C)nc21 [Nalidixic acid]
zone of inhibition at 5 µg/disc (lptB1(R144H); [3]): 20 mm
zone of inhibition at 5 µg/disc (lptB1(R144H); [7]): 17 mm
zone of inhibition at 5 µg/disc (lptB1(G33C); [3]): 14 mm
zone of inhibition at 5 µg/disc (lptB1(G33C); [7]): 12 mm
zone of inhibition at 5 µg/disc (wild type; [3]): 14 mm
zone of inhibition at 5 µg/disc (wild type; [7]): 11 mm
zone of inhibition at 5 µg/disc (lptB1; [4]): 21 mm
zone of inhibition at 5 µg/disc (lptB1; [5]): 18 mm
suppression of lethality of IptFG(ch) (IptFG(ch) mutant): but not nalidixic acid (NA), suppressed the lethality of IptFG(ch)

polymyxin B
change in log10 CFU/g of thigh from 2 hour control [1, 8]: 3.91 log10 CFU/g of thigh
change in log10 CFU/g of thigh from 26 hour controls [1, 8]: −0.18 log10 CFU/g of thigh
change in log10 CFU/g of thigh from 2 hour control [1, 9]: 3.95 log10 CFU/g of thigh
change in log10 CFU/g of thigh from 26 hour controls [1, 9]: −0.13 log10 CFU/g of thigh
change in log10 CFU/g of thigh from 2 hour control [1, 10]: 3.38 log10 CFU/g of thigh
change in log10 CFU/g of thigh from 26 hour controls [1, 10]: −0.70 log10 CFU/g of thigh
change in log10 CFU/g of thigh from 2 hour control ([1]; PMB 1 mg/kg (total 2) BID/SC): 0.49 log10 CFU/g of thigh
change in log10 CFU/g of thigh from 26 hour controls ([1]; PMB 1 mg/kg (total 2) BID/SC): −3.60 log10 CFU/g of thigh
reductions in CFUs from the 26 hour infection controls ([1]; Polymyxin B as a single agent at 0.2 mg/kg): 0.70 log10 CFU/gram of thigh
reductions in CFUs from the 26 hour infection controls ([1]; Polymyxin B as a single agent at 1 mg/kg): 3.60 log10 CFU/gram of thigh
Average log10 CFU/g of thigh [1, 8]: 9.44 log10 CFU/g of thigh
Average log10 CFU/g of thigh [1, 9]: 9.49 log10 CFU/g of thigh
Average log10 CFU/g of thigh [1, 10]: 8.92 log10 CFU/g of thigh
Average log10 CFU/g of thigh ([1]; PMB 1 mg/kg (total 2) BID/SC): 6.02 log10 CFU/g of thigh
MIC [2]: 280 ng/mL
MIC (Escherichia coli): 110 ng/mL
MIC (Pseudomonas aeruginosa): >1000 ng/mL
MIC (Klebsiella pneumoniae): 1000 ng/mL

CO[C@H]1/C=C/O[C@@]2(C)Oc3c(C)c(O)c4c(O)c(c(/C=N/N5CCN(C)CC5)c(O)c4c3C2=O)NC(=O)/C(C)=C\C=C\[C@H](C)[C@H](O)[C@@H](C)[C@@H](O)[C@@H](C)[C@H](OC(C)=O)[C@@H]1C [Rifampicin]
Zone of inhibition, diameter of the zone of total growth inhibition (lptB1(R144H)): 24 mm
Zone of inhibition, diameter of the zone of total growth inhibition (lptB1(G33C); [6]): 9 mm
Zone of inhibition, diameter of the zone of partial growth inhibition (in parentheses) (wild type): 9 mm
Zone of inhibition, diameter of the zone of total growth inhibition (wild type): 8 mm
Zone of inhibition, diameter of the zone of total growth inhibition (lptB1): 17 mm
